# Data: patent publication US8642807B2, “Crystallized diacetylenic indicator compounds and methods of preparing the compounds” (Temptime Corporation, priority 2007, dated 2014)
# Legend:
# Assay type in all cases: physicochemical
# [1] = Solubility test: ability of each solvent to dissolve at least 1 percent by weight at a process temperature near its boiling point (Example 1)
# Description: This example illustrates solvent mapping, testing and solubility region definition for a diacetylenic monomer for which new solvents and solubility information are desired, namely 2,4-hexadiyn-1,6-bis(ethylurea) and for which reliable solubility parameter information is not available. In this example, solubility points are mapped for each of a number of representative samples of a wide range of solvents of different chemical types and physicochemical characteristics, according to their solubility parameters. The solubility points of the representative solvents (filled squares) are mapped on a plot of hydrogen bonding (δH), on the Y-axis, versus polar parameters (δP), on the X-axis, generating a map such as that shown in FIG. 4. Also shown in FIG. 4 are solubility points for solvent systems comprising 25 percent by weight water/solvent mixtures (unfilled squares).
# Each solvent is tested for its ability to dissolve at least 1 percent by weight 2,4-hexadiyn-1,6-bis(ethylurea) at a temperature not more than 5° C. above the boiling point of the solvent. Because the boiling points of the solvents tested vary widely, ranging from 56° C. to 189° C. the solvents are processed in batches at temperatures of 60, 75, 82, and 90° C., respectively. The process temperature desirably is not greater than 4 to 5° C. above a given solvent's boiling point.
# Some exemplary solubility data obtainable for 2,4-hexadiyn-1,6-bis(ethylurea) from the above-described solubility test with the solvents indicated, are set forth in Table 1 below along with solubility parameter information for the solvents. Also included in Table 1 are data regarding the 25 percent by weight water/solvent mixtures.
# [2] = Solubility in 1,1,3,3-tetramethyl urea at 90° C. in a closed vial; conditions: tetramethyl urea (TMU)
# Protocol: 1,1,3,3tetramethyl urea, also called “tetramethyl urea” and sometimes referenced “TMU” can dissolve up to 7% weight 2,4-hexadiyn-1,6-bis(ethylurea) at a temperature of 90° C. in a closed vial.
# [3] = Room temperature solubilities in various solvent systems (Table 3); conditions: for Solubility: 20° C., material recrystallized from acetic acid
# Description: As is the case elsewhere herein, the acetone/water and ethanol/water solvent mixtures are given in weight-for-weight proportions in Table 3 and FIG. 10. It can be seen from Table 3 and FIG. 10 that some of the solvent systems displaying elevated solubility at higher temperatures, for example acetic acid and the several aqueous mixtures, have only limited solubility at room temperature.
# [4] = Further solubility tests at 1, 4, 7 and 10 percent by weight, 90° C. water bath (Example 2)
# Protocol: A 90° C. water bath is employed to maintain the solvent or solution temperature and results obtainable are tabulated in Table 2 below, solubility parameter information again being included to facilitate understanding of the data for acetone and water, for reference.
# [5] = solvent 1-Propanol, 90° C. water bath
# [6] = solvent 2-Propanol (IPA), 90° C. water bath
# [7] = solvent 25% Water/Acetone, 90° C. water bath
# [8] = solvent 25% Water/DMF, 90° C. water bath
# [9] = solvent 25% Water/DMSO, 90° C. water bath
# [10] = solvent 25% Water/Ethanol, 90° C. water bath
# [11] = solvent 25% Water/IPA, 90° C. water bath
# [12] = solvent 25% water/acetic acid, 90° C. water bath
# [13] = solvent 25% water/formic acid, 90° C. water bath
# [14] = solvent Acetic acid, 90° C. water bath
# [15] = solvent Acetone, 90° C. water bath
# [16] = solvent DMSO, 90° C. water bath
# [17] = solvent Ethanol, 90° C. water bath
# [18] = solvent Ethylene Glycol, 90° C. water bath
# [19] = solvent Formic acid, 90° C. water bath
# [20] = solvent Methanol, 90° C. water bath
# [21] = solvent Pyridine, 90° C. water bath
# [22] = solvent Water, 90° C. water bath
smiles,measurement,setting,value
"CCNC(=O)NCC#CC#CCNC(=O)NCC [KE, 2,4-hexadiyn-1,6-bis(ethylurea)]",amount dissolved,"[1]; N,N-dimethyl formamide (DMF)",at least 1 percent by weight
same,amount dissolved,[1]; acetic acid,at least 1 percent by weight
same,amount dissolved,[1]; dimethyl sulfoxide (DMSO),at least 1 percent by weight
same,amount dissolved,[1]; ethanol (EtOH),at least 1 percent by weight
same,amount dissolved,[1]; ethylene glycol,at least 1 percent by weight
same,amount solvated by pyridine,[1]; pyridine,about 1 % by weight
same,KE soluble at 1% wt?,"[1]; solvent Acrylonitrile, process T 75 °C",No
same,KE soluble at 1% wt?,"[1]; solvent Benzene, process T 75 °C",No
same,KE soluble at 1% wt?,"[1]; solvent Ethanol, process T 75 °C",Yes
same,KE soluble at 1% wt?,"[1]; solvent Ethyl acetate, process T 75 °C",No
same,KE soluble at 1% wt?,"[1]; solvent THF, process T 60 °C",No
same,KE soluble at 1% wt?,"[1]; solvent n-Hexane, process T 75 °C",No
same,amount dissolved,"[1]; the water/solvent mixtures (25 percent by weight water), all",at least 1 percent by weight
same,"amount dissolved by 1,1,3,3-tetramethyl urea",[2],up to 7 % weight
same,Solubility,[3]; Acetic acid,0.6 wt. % of the Solution
same,Solubility,[3]; Acetone/water 4:1 (weight for weight),0.16 wt. % of the Solution
same,Solubility,[3]; DMF,4 wt. % of the Solution
same,Solubility,[3]; DMSO,4 wt. % of the Solution
same,Solubility,[3]; Dichloroacetic acid,33 wt. % of the Solution
same,Solubility,[3]; Ethanol/water 4:1 (weight for weight),0.18 wt. % of the Solution
same,Solubility,[3]; Ethyl alcohol,0.17 wt. % of the Solution
same,Solubility,[3]; Formic acid,23 wt. % of the Solution
same,Solubility,[3]; Isopropyl alcohol,0.09 wt. % of the Solution
same,Solubility,[3]; Methyl alcohol “MeOH”,0.27 wt. % of the Solution
same,Solubility,[3]; Tetramethyl urea,0.90 wt. % of the Solution
same,Solubility,[3]; Trifluoroaceticacetic acid,30 wt. % of the Solution
same,amount solvated by formic acid,"[3]; formic acid, room temperature",~13 % by weight
same,Solubility,"[4]; 25% water/ethanol mixture (1 part water, 3 parts ethanol by weight)",at least 4 percent by weight
same,Solubility,"[4]; dimethyl sulfoxide, 90° C. water bath",> 10%
same,Solubility,"[4]; formic acid, 90° C. water bath",> 10%
same,Solubility,[4]; pure ethanol,less than 4 percent by weight
same,Is KE soluble at 1%?,[4]; [5],Yes
same,Is KE soluble at 4%?,[4]; [5],No
same,Is KE soluble at 7%?,[4]; [5],No
same,Is KE soluble at 10%?,[4]; [5],No
same,Is KE soluble at 1%?,[4]; [6],Yes
same,Is KE soluble at 4%?,[4]; [6],No
same,Is KE soluble at 7%?,[4]; [6],No
same,Is KE soluble at 10%?,[4]; [6],No
same,Is KE soluble at 1%?,[4]; [7],Yes
same,Is KE soluble at 4%?,[4]; [7],Yes
same,Is KE soluble at 7%?,[4]; [7],No
same,Is KE soluble at 10%?,[4]; [7],No
same,Is KE soluble at 1%?,[4]; [8],Yes
same,Is KE soluble at 4%?,[4]; [8],Yes
same,Is KE soluble at 7%?,[4]; [8],Yes
same,Is KE soluble at 10%?,[4]; [8],No
same,Is KE soluble at 1%?,[4]; [9],Yes
same,Is KE soluble at 4%?,[4]; [9],Yes
same,Is KE soluble at 7%?,[4]; [9],No
same,Is KE soluble at 10%?,[4]; [9],No
same,Is KE soluble at 1%?,[4]; [10],Yes
same,Is KE soluble at 4%?,[4]; [10],Yes
same,Is KE soluble at 7%?,[4]; [10],No
same,Is KE soluble at 10%?,[4]; [10],No
same,Is KE soluble at 1%?,[4]; [11],Yes
same,Is KE soluble at 4%?,[4]; [11],No
same,Is KE soluble at 7%?,[4]; [11],No
same,Is KE soluble at 10%?,[4]; [11],No
same,Is KE soluble at 1%?,[4]; [12],Yes
same,Is KE soluble at 4%?,[4]; [12],Yes
same,Is KE soluble at 7%?,[4]; [12],Yes
same,Is KE soluble at 10%?,[4]; [12],No
same,Is KE soluble at 1%?,[4]; [13],Yes
same,Is KE soluble at 4%?,[4]; [13],Yes
same,Is KE soluble at 7%?,[4]; [13],Yes
same,Is KE soluble at 10%?,[4]; [13],No
same,Is KE soluble at 1%?,[4]; [14],Yes
same,Is KE soluble at 4%?,[4]; [14],Yes
same,Is KE soluble at 7%?,[4]; [14],Yes
same,Is KE soluble at 10%?,[4]; [14],Yes
same,Is KE soluble at 1%?,[4]; [15],No
same,Is KE soluble at 4%?,[4]; [15],No
same,Is KE soluble at 7%?,[4]; [15],No
same,Is KE soluble at 10%?,[4]; [15],No
same,Is KE soluble at 1%?,"[4]; solvent DMF, 90° C. water bath",Yes
same,Is KE soluble at 4%?,"[4]; solvent DMF, 90° C. water bath",Yes
same,Is KE soluble at 7%?,"[4]; solvent DMF, 90° C. water bath",Yes
same,Is KE soluble at 10%?,"[4]; solvent DMF, 90° C. water bath",Yes
same,Is KE soluble at 1%?,[4]; [16],Yes
same,Is KE soluble at 4%?,[4]; [16],Yes
same,Is KE soluble at 7%?,[4]; [16],Yes
same,Is KE soluble at 10%?,[4]; [16],Yes
same,Is KE soluble at 1%?,[4]; [17],Yes
same,Is KE soluble at 4%?,[4]; [17],No
same,Is KE soluble at 7%?,[4]; [17],No
same,Is KE soluble at 10%?,[4]; [17],No
same,Is KE soluble at 1%?,[4]; [18],Yes
same,Is KE soluble at 4%?,[4]; [18],No
same,Is KE soluble at 7%?,[4]; [18],No
same,Is KE soluble at 10%?,[4]; [18],No
same,Is KE soluble at 1%?,[4]; [19],Yes
same,Is KE soluble at 4%?,[4]; [19],Yes
same,Is KE soluble at 7%?,[4]; [19],Yes
same,Is KE soluble at 10%?,[4]; [19],Yes
same,Is KE soluble at 1%?,[4]; [20],Yes
same,Is KE soluble at 4%?,[4]; [20],Yes
same,Is KE soluble at 7%?,[4]; [20],No
same,Is KE soluble at 10%?,[4]; [20],No
same,Is KE soluble at 1%?,[4]; [21],Yes
same,Is KE soluble at 4%?,[4]; [21],No
same,Is KE soluble at 7%?,[4]; [21],No
same,Is KE soluble at 10%?,[4]; [21],No
same,Is KE soluble at 1%?,[4]; [22],No
same,Is KE soluble at 4%?,[4]; [22],No
same,Is KE soluble at 7%?,[4]; [22],No
same,Is KE soluble at 10%?,[4]; [22],No
same,solubility in water,[4]; water,insoluble
same,Solubility,[4]; water and acetone combined (25% Water/Acetone),at least 4 percent by weight
